Results: paper PMC9227250, “Design, Synthesis and Cytotoxic Activity Evaluation of Newly Synthesized Amides-Based TMP Moiety as Potential Anticancer Agents over HepG2 Cells” (Molecules, 2022)

Key:
pan HDAC = system: pan HDAC; design: method as in doi:10.1039/D0NJ01274B; conditions: read-out: pan HDAC inhibitory activity IC50; cited from earlier work
HL-7702 cells = assay: MTT cytotoxicity assay against normal liver cell line HL-7702; format: cell-based, human; conditions: Homo sapiens, L02; MTT assay, normal liver cell line HL-7702, mean of three independent replicates ± SE
Description: (§1) Cytotoxic activity was carried out using MTT colorimetric antiproliferative assay to investigate the effect of the prepared molecules on HepG2 as well as HL-7702 cell lines. See Section 4.3.1 in Supplementary Data.
(§2) 4.3.1. Cytotoxic activity evaluation
(§3) To measure the cytotoxic actvity of the amide derivatives 2-6e in hepatocellular carcinoma (HepG2) cell line (ATCC Cat No. HB-8065) as well as normal human liver cell line HL-7702 (ATCC Cat. No. 77402), cell viability assay was assessed using MTT assay method. Cells at density of 1 x 104 were seeded in a 96-well plate at 37 °C for 24 h under 5% CO2. After incubation, the cells were treated with different concentrations of the test schiff bases 2-6e and incubated for 24 h, then 20 µl of MTT solution at 5 mg/mL was applied and incubated for 4 h at 37 °C . Dimethyl sulphoxide (DMSO) in volume of 100 µl was added to each well to dissolve the purple formazan that had formed. The color intensity of the formazan product, which represents the growth condition of the cells, is quantified by using an ELISA plate reader (EXL 800, USA) at 450 nm absorbance. The experimental conditions were carried out with at least three replicates, and the experiments were repeated at least three times. […]

HepG2 cells = assay: MTT cytotoxicity assay against HepG2 cell line; format: cell-based; conditions: Homo sapiens, mean of three independent replicates ± SE
Description: as §1, §2, §3

β-tubulin = target: T1, β-tubulin (Homo sapiens, UniProt P07437+P68363); assay: Tubulin polymerization inhibition assay (Human Beta-tubulin ELISA kit); format: biochemical; conditions: ELISA for β-tubulin, compared with untreated control cells
T1 construct: […]
T1 sequence (P07437 whole entry): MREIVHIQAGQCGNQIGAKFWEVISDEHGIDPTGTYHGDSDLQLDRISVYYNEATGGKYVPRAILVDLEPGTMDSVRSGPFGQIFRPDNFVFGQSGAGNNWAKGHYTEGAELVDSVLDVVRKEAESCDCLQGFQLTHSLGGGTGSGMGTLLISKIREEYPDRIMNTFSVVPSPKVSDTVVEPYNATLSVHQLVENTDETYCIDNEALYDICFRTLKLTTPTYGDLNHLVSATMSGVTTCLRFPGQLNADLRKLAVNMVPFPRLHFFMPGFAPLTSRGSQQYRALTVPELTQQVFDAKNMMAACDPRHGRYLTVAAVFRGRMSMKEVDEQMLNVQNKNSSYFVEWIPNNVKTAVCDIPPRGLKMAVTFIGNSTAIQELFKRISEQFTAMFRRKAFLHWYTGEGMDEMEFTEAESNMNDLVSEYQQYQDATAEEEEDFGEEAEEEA
T1 sequence (P68363 whole entry): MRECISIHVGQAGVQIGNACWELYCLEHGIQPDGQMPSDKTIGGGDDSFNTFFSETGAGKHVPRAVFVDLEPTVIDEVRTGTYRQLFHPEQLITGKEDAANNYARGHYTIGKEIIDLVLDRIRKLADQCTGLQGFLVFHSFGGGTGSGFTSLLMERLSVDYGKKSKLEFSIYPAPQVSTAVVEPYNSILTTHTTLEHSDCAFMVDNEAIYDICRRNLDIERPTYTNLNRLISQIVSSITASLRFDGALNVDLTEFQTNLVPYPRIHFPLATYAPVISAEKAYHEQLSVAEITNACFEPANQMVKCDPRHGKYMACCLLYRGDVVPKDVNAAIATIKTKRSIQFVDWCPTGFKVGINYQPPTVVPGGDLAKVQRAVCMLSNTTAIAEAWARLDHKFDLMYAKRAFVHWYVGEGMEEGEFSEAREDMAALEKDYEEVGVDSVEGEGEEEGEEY
Description: See Section 4.3.3 in Supplementary Data.
4.3.3. Tubulin inhibitions Assay […]
manufacturer’s instructions using # abcam Human Beta-tubulin simplestep ELISA Kit […]
Cell cycle analysis in HepG2 cells was investigated using fluorescent Annexin V - FITC/ PI detection kit (BioVision EZCellTM Cell Cycle Analysis Kit Catalog #K920) […]
After treatment, cells were washed twice in PBS, fixed in 70% ethanol, rinsed again with PBS. Cells were collected by centrifugation at 2000 rpm for 5 min and stained with DNA […]
The samples were immediately analyzed using Facs Calibur flow cytometer (Becton and Dickinson, Heidelberg, Germany).
Apoptosis in HepG2 cells was investigated using fluorescent Annexin V-FITC/ PI detection kit (BioVision Annexin V-FITC Apoptosis Detection Kit, Catalog #: K101) […]
immediately analyzed using FACS Calibur flow cytometer (Becton and Dickinson, […]
Caspase 3/7 in HepG2 cells was investigated using CellEvent® Caspase 3/7 Green Detection Flow Cytometry Assay Kit. Caspase 3/7 activity in HepG2 cell line was […]
CellEvent® caspase 3/7 green detection flow cytometry assay kit according to manufacturer’s directions. […]
harvested and washed with ice cold PBS, and cell lysates were prepared and […]

HDAC1 = conditions: cited from earlier work

SMILES | melting point [°C] | IC50 (HepG2 cells) [µM] | other results
COc1cc(C(=O)NC(=Cc2ccco2)C(=O)Nc2ccc3ccccc3c2)cc(OC)c1OC (hydrate or solvate) [Compound 3, N-(1-(furan-2-yl)-3-(naphthalen-2-ylamino)-3-oxoprop-1-en-2-yl)-3,4,5-trimethoxybenzamide] | 270 to 272 | – | –
Nc1ccccc1NC(=O)c1cnccn1 [BG45] | – | – | IC50 (pan HDAC): 5.51 µM
COc1ccc(/C=C\c2cc(OC)c(OC)c(OC)c2)cc1O [CA-4, combretastatin A-4, reference compound] | – | 0.54 ± 0.04 | IC50 (HL-7702 cells): 8.86 ± 0.67 µM; tubulin polymerization percentage inhibition (β-tubulin): 88.72%
COc1cc(C(=O)NC(=Cc2ccco2)C(=O)Nc2cccc(Cl)c2)cc(OC)c1OC [Compound 2a, N-(3-(3-chlorophenylamino)-1-(furan-2-yl)-3-oxoprop-1-en-2-yl)-3,4,5-trimethoxybenzamide] | 248 to 250 | 68.9 ± 3.32 | –
COc1cc(C(=O)NC(=Cc2ccco2)C(=O)Nc2ccc(Cl)cc2)cc(OC)c1OC [Compound 2b, N-(3-(4-chlorophenylamino)-1-(furan-2-yl)-3-oxoprop-1-en-2-yl)-3,4,5-trimethoxybenzamide] | 241 to 243 | 23.3 ± 1.03 | –
COc1cc(C(=O)NC(=Cc2ccco2)C(=O)Nc2ccc(C)cc2)cc(OC)c1OC [Compound 2c, N-(1-(furan-2-yl)-3-oxo-3-(p-tolylamino)prop-1-en-2-yl)-3,4,5-trimethoxybenzamide] | 261 to 263 | 22 ± 0.96 | –
COc1cc(C(=O)NC(=Cc2ccco2)C(=O)Nc2ccc3ccccc3c2)cc(OC)c1OC [Compound 3, N-(1-(furan-2-yl)-3-(naphthalen-2-ylamino)-3-oxoprop-1-en-2-yl)-3,4,5-trimethoxybenzamide] | – | 16.2 ± 0.79 | –
COc1cc(C(=O)NC(=Cc2ccco2)C(=O)NNC(=O)c2cccc(O)c2)cc(OC)c1OC [Compound 4a, N-(1-(furan-2-yl)-3-(2-(3-hydroxybenzoyl)hydrazinyl)-3-oxoprop-1-en-2-yl)-3,4,5-trimethoxybenzamide] | 235 to 237 | 13.4 ± 0.56 | –
COc1cc(C(=O)NC(=Cc2ccco2)C(=O)NNC(=O)c2ccncc2)cc(OC)c1OC [Compound 4b, N-(1-(furan-2-yl)-3-(2-isonicotinoylhydrazinyl)-3-oxoprop-1-en-2-yl)-3,4,5-trimethoxybenzamide] | 228 to 230 | 8.36 ± 0.51 | –
COc1cc(C(=O)NC(=Cc2ccco2)C(=O)NNC(=O)c2ccc(NC(=O)c3cccnc3)cc2)cc(OC)c1OC [Compound 5, N-(4-(2-(3-(furan-2-yl)-2-(3,4,5 trimethoxybenzamido)acryloyl)hydrazinecarbonyl)phenyl)nicotinamide] | 217 to 219 | 3.25 ± 0.25 | –
COc1cc(C(=O)NC(=Cc2ccc(C#N)cc2)C(=O)NNC(=O)/C(=C/c2ccco2)NC(=O)c2cc(OC)c(OC)c(OC)c2)cc(OC)c1OC [Compound 6b, N-((1Z)-3-(2-(3-(4-cyanophenyl)-2-(3,4,5-trimethoxybenzamido)acryloyl)hydrazinyl)-1-(furan-2-yl)-3-oxoprop-1-en-2-yl)-3,4,5-trimethoxybenzamide] | 223 to 225 | 0.92 ± 0.1 | IC50 (HL-7702 cells): 11.1 ± 0.18 µM
COc1cc(C(=O)NC(=Cc2ccc(N(C)C)cc2)C(=O)NNC(=O)/C(=C/c2ccco2)NC(=O)c2cc(OC)c(OC)c(OC)c2)cc(OC)c1OC [Compound 6c, N-((1Z)-3-(2-(3-(4-(dimethylamino)phenyl)-2-(3,4,5-trimethoxybenzamido)acryloyl)hydrazinyl)-1-(furan-2-yl)-3-oxoprop-1-en-2-yl)-3,4,5-trimethoxybenzamide] | 215 to 217 | 1.12 ± 0.12 | IC50 (HL-7702 cells): 9.88 ± 0.14 µM
COc1ccc(C=C(NC(=O)c2cc(OC)c(OC)c(OC)c2)C(=O)NNC(=O)/C(=C/c2ccco2)NC(=O)c2cc(OC)c(OC)c(OC)c2)cc1 [Compound 6d, N-(3-(2-((Z)-3-(furan-2-yl)-2-(3,4,5-trimethoxybenzamido)acryloyl)hydrazinyl)-1-(4-methoxyphenyl)-3-oxoprop-1-en-2-yl)-3,4,5-trimethoxybenzamide] | 206 to 208 | 3.81 ± 0.18 | –
COc1cc(C=C(NC(=O)c2cc(OC)c(OC)c(OC)c2)C(=O)NNC(=O)/C(=C/c2ccco2)NC(=O)c2cc(OC)c(OC)c(OC)c2)cc(OC)c1OC [Compound 6e, N-(3-(2-((Z)-3-(furan-2-yl)-2-(3,4,5-trimethoxybenzamido)acryloyl)hydrazinyl)-3-oxo-1-(3,4,5-trimethoxyphenyl)prop-1-en-2-yl)-3,4,5-trimethoxybenzamide] | 212 to 214 | 3.98 ± 0.09 | –
Nc1ccccc1NC(=O)c1ccc(C(C(=O)Nc2ccccc2)C(=O)Nc2ccccc2)cc1 [III] | – | – | fold potency for HDAC1 compared with HDAC2 (HDAC1): 10 fold; fold potency for HDAC1 compared with HDAC3 (HDAC1): 20 fold
Cc1ccc(/C=N/NC(=O)c2ccc(NC(=O)c3cccnc3)cc2)cc1 [IV] | – | – | IC50 (pan HDAC): 4.65 µM
O=C(CCCCCCC(=O)Nc1ccccc1)NO [SAHA, suberoylanilide hydroxamic acid, reference compound] | – | 2.91 ± 0.15 | –
